In US20260207618A1, “PYRIMIDINE CARBOXAMIDE COMPOUNDS” (Acrivon Therapeutics, Inc., priority 2022, published 2026):

How the values were obtained:
[1] = test system: Cdk1 phosphorylated on tyrosine 15; experiment: High-content imaging of pCdk1 Y15 by immunofluorescence in ACHN cells; assay type: cell-based; conditions: Homo sapiens, high-content imaging (IF), 4 h, 7 to 5000 nM, read-out: CDK1 Tyr15 Phosphorylation EC50 (IC50)
Method in brief: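 ACHN cells were treated with compounds at 7–5000 nM for 4 h, then fixed, permeabilised and immunostained for pCDK1 Y15, with DAPI as nuclear counterstain. Automated imaging gave the percentage of cells with nuclear pCDK1 Y15 positivity relative to DMSO control. EC50 values came from dose-response curves.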

[2] = target: T1, recombinant human Wee1A kinase (Homo sapiens, UniProt P30291); experiment: LanthaScreen Europium (Eu) Kinase Binding Assay, Wee1A kinase (TR-FRET tracer displacement); conditions: 30 nM tracer 178, 5 nM Wee1A kinase, 60 minutes at room temperature
T1 construct: full length Wee1A kinase was expressed by baculovirus in insect cells; purchased Invitrogen PV3817; host or cells: insect cells (baculovirus)
T1 sequence (P30291 whole entry): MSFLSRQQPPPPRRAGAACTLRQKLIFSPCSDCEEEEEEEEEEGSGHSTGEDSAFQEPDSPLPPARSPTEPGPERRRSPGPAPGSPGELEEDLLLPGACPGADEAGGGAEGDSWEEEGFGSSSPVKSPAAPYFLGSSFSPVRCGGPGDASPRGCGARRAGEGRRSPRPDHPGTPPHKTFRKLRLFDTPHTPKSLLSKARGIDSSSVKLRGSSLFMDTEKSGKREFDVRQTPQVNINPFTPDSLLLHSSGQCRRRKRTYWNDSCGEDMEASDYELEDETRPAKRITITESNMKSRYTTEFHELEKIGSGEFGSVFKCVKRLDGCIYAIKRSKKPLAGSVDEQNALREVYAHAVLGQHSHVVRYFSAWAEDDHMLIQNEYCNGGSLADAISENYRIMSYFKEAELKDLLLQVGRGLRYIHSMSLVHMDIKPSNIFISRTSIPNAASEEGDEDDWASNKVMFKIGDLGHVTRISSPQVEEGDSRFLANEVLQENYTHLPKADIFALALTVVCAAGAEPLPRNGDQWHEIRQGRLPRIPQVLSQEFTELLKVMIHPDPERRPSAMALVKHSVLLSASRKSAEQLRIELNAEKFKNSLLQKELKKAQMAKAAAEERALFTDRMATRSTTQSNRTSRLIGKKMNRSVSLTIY

| SMILES | EC50 [1] | IC50 [2] |
| --- | --- | --- |
| COc1nc(Nc2ccc(OCCCN3CCOCC3)c(C)c2)ncc1C(=O)Nc1c(Cl)ccc(O)c1C [Compound 150, N-(6-chloro-3-hydroxy-2-methylphenyl)-4-methoxy-2-((3-methyl-4-(3-morpholinopropoxy)phenyl)amino)pyrimidine-5-carboxamide] | > 1000 nM | ≤ 10 nM |
| COc1nc(Nc2cnn(C[C@@H]3CCNC3)c2)ncc1C(=O)Nc1c(Cl)cccc1Cl [Compound 164] | > 1000 nM | ≤ 10 nM |
| COc1nc(Nc2cnn(C[C@H]3CCNC3)c2)ncc1C(=O)Nc1c(Cl)cccc1Cl [Compound 165] | > 1000 nM | 10 to 100 nM |
| COc1nc(Nc2ccc([C@H]3CCCNC3)c(C)c2)ncc1C(=O)Nc1c(Cl)cccc1Br [Compound 198, (R)—N-(2-bromo-6-chlorophenyl)-4-methoxy-2-((3-methyl-4-(piperidin-3-yl)phenyl)amino)pyrimidine-5-carboxamide] | 100 to 500 nM | ≤ 10 nM |
| COc1nc(Nc2ccc([C@@H]3CCCNC3)c(C)c2)ncc1C(=O)Nc1c(Cl)cccc1Br [Compound 199, (S)—N-(2-bromo-6-chlorophenyl)-4-methoxy-2-((3-methyl-4-(piperidin-3-yl)phenyl)amino)pyrimidine-5-carboxamide] | 100 to 500 nM | ≤ 10 nM |
| CCOc1nc(Nc2cnn([C@@H](C)CNC)c2)ncc1C(=O)Nc1c(Cl)cccc1Br [Compound 201, N-(2-bromo-6-chlorophenyl)-2-{1-[(S)-1-methyl-2-(methylamino)ethyl]-4-pyrazolylamino}-4-ethoxy-5-pyrimidinecarboxamide] | > 1000 nM | ≤ 10 nM |
| CCOc1nc(Nc2cnn([C@@H](C)CN(C)C)c2)ncc1C(=O)Nc1c(Cl)cccc1Br [Compound 202, N-(2-bromo-6-chlorophenyl)-2-{1-[(S)-2-(dimethylamino)-1-methylethyl]-4-pyrazolylamino}-4-ethoxy-5-pyrimidinecarboxamide] | > 1000 nM | ≤ 10 nM |
| CCOc1nc(Nc2cnn([C@H](C)CNC)c2)ncc1C(=O)Nc1c(Cl)cccc1Br [Compound 203, N-(2-bromo-6-chlorophenyl)-2-{1-[(R)-1-methyl-2-(methylamino)ethyl]-4-pyrazolylamino}-4-ethoxy-5-pyrimidinecarboxamide] | > 1000 nM | ≤ 10 nM |
| CCOc1nc(Nc2cnn([C@H](C)CN(C)C)c2)ncc1C(=O)Nc1c(Cl)cccc1Br [Compound 204] | > 1000 nM | ≤ 10 nM |
| COc1nc(Nc2ccc(N3CCCN(C)CC3)cc2)ncc1C(=O)Nc1c(Cl)cccc1Br [Compound 206, N-(2-bromo-6-chlorophenyl)-4-methoxy-2-[p-(4-methyl-1,4-diazepan-1-yl)phenylamino]-5-pyrimidinecarboxamide] | 100 to 500 nM | ≤ 10 nM |
| COc1nc(Nc2ccc(N3CCCNCC3)cc2)ncc1C(=O)Nc1c(Cl)cccc1Br [Compound 207, 2-((4-(1,4-diazepan-1-yl)phenyl)amino)-N-(2-bromo-6-chlorophenyl)-4-methoxypyrimidine-5-carboxamide] | 100 to 500 nM | ≤ 10 nM |
| COc1nc(Nc2ccc(N3CCC4(CCN(C)CC4)CC3)cc2)ncc1C(=O)Nc1c(Cl)cccc1Br [Compound 209, N-(2-bromo-6-chlorophenyl)-4-methoxy-2-{p-(9-methyl-3,9-diaza-3-spiro[5.5]undecyl)phenylamino}-5-pyrimidinecarboxamide] | 100 to 500 nM | ≤ 10 nM |
| COc1nc(Nc2ccc(O[C@@H]3CCN(C)C3)c(C)c2)ncc1C(=O)Nc1c(Cl)cccc1Br [Compound 211] | 100 to 500 nM | ≤ 10 nM |
| COc1nc(Nc2cc(C)c(N3CCC(N(C)C)CC3)c(F)c2)ncc1C(=O)Nc1c(Cl)cccc1Br [Compound 214] | 100 to 500 nM | ≤ 10 nM |
| COc1nc(Nc2ccc(C3CCN(C)CC3)c(Cl)c2)ncc1C(=O)Nc1c(Cl)cccc1Br [Compound 215, N-(2-bromo-6-chlorophenyl)-2-[3-chloro-4-(1-methyl-4-piperidyl)phenylamino]-4-methoxy-5-pyrimidinecarboxamide] | 100 to 500 nM | ≤ 10 nM |
| COc1cc(Nc2ncc(C(=O)Nc3c(Cl)cccc3Br)c(OC)n2)ccc1C1CCN(C)CC1 [Compound 216, N-(2-bromo-6-chlorophenyl)-4-methoxy-2-((3-methoxy-4-(1-methylpiperidin-4-yl)phenyl)amino)pyrimidine-5-carboxamide] | 100 to 500 nM | ≤ 10 nM |
| CCOc1cc(Nc2ncc(C(=O)Nc3c(Cl)cccc3Br)c(OC)n2)ccc1C1CCN(C)CC1 [Compound 217, N-(2-bromo-6-chlorophenyl)-2-((3-ethoxy-4-(1-methylpiperidin-4-yl)phenyl)amino)-4-methoxypyrimidine-5-carboxamide] | 100 to 500 nM | ≤ 10 nM |
| CCCOc1cc(Nc2ncc(C(=O)Nc3c(Cl)cccc3Br)c(OC)n2)ccc1C1CCN(C)CC1 [Compound 218, N-(2-bromo-6-chlorophenyl)-4-methoxy-2-((4-(1-methylpiperidin-4-yl)-3-propoxyphenyl)amino)pyrimidine-5-carboxamide] | 100 to 500 nM | ≤ 10 nM |
| COc1nc(Nc2ccc(OC3CCNCC3)c(C)c2)ncc1C(=O)Nc1c(Cl)cccc1Br [Compound 219] | 100 to 500 nM | ≤ 10 nM |
| COc1nc(Nc2ccc(OC3CCN(C)CC3)c(C)c2)ncc1C(=O)Nc1c(Cl)cccc1Br [Compound 220, N-(2-bromo-6-chlorophenyl)-4-methoxy-2-((3-methyl-4-((1-methylpiperidin-4-yl)oxy)phenyl)amino)pyrimidine-5-carboxamide] | 100 to 500 nM | ≤ 10 nM |
| CCOc1nc(Nc2ccc(OC3CCNCC3)c(C)c2)ncc1C(=O)Nc1c(Cl)cccc1Br [Compound 221] | 100 to 500 nM | ≤ 10 nM |
| CCOc1nc(Nc2ccc(OC3CCN(C)CC3)c(C)c2)ncc1C(=O)Nc1c(Cl)cccc1Br [Compound 222] | 100 to 500 nM | ≤ 10 nM |
| COc1nc(Nc2cnn(C)c2)ncc1C(=O)Nc1c(Cl)ccc(O)c1Cl [Compound 223, N-(2,6-dichloro-3-hydroxyphenyl)-4-methoxy-2-((1-methyl-1H-pyrazol-4-yl)amino)pyrimidine-5-carboxamide] | > 1000 nM | ≤ 10 nM |

Second part, the compound after the results:

| EC50 [1] | IC50 [2] | SMILES |
| --- | --- | --- |
| 100 to 500 nM | ≤ 10 nM | COc1nc(Nc2ccc(OC3CCN(C)CC3)c(C)c2)ncc1C(=O)Nc1c(Cl)ccc(O)c1C [Compound 152, N-(6-chloro-3-hydroxy-2-methylphenyl)-4-methoxy-2-((3-methyl-4-((1-methylpiperidin-4-yl)oxy)phenyl)amino)pyrimidine-5-carboxamide] |
| ≤ 100 nM | ≤ 10 nM | COc1nc(Nc2ccc(O[C@@H]3CCN(C)C3)c(C)c2)ncc1C(=O)Nc1c(Cl)ccc(O)c1C [Compound 153, (R)—N-(6-chloro-3-hydroxy-2-methylphenyl)-4-methoxy-2-((3-methyl-4-((1-methylpyrrolidin-3-yl)oxy)phenyl)amino)pyrimidine-5-carboxamide] |
| 100 to 500 nM | 10 to 100 nM | COc1nc(Nc2ccc(C3CCN(C)CC3)c(C#N)c2)ncc1C(=O)Nc1c(Cl)ccc(O)c1C [Compound 157, N-(6-chloro-3-hydroxy-2-methylphenyl)-2-((3-cyano-4-(1-methylpiperidin-4-yl)phenyl)amino)-4-methoxypyrimidine-5-carboxamide] |
| 100 to 500 nM | ≤ 10 nM | COc1nc(Nc2ccc(N3CCN(C)CC3)c(C)c2)ncc1C(=O)Nc1c(Cl)cccc1Cl [Compound 161] |
| 100 to 500 nM | ≤ 10 nM | COc1nc(Nc2ccc(N3CCNCC3)c(C)c2)ncc1C(=O)Nc1c(Cl)cccc1Cl [Compound 162] |
| 100 to 500 nM | ≤ 10 nM | COc1nc(Nc2ccc3c(cnn3C3CCN(C)CC3)c2)ncc1C(=O)Nc1c(Cl)cccc1Cl [Compound 166] |
| 100 to 500 nM | ≤ 10 nM | COc1nc(Nc2ccc(N3CCNCCC3=O)c(C)c2)ncc1C(=O)Nc1c(Cl)cccc1Cl [Compound 167] |
| 100 to 500 nM | ≤ 10 nM | C#Cc1cccc(Br)c1NC(=O)c1cnc(Nc2ccc(C3CCNCC3)c(C)c2)nc1OC [Compound 184, N-(2-bromo-6-ethynylphenyl)-4-methoxy-2-((3-methyl-4-(piperidin-4-yl)phenyl)amino)pyrimidine-5-carboxamide] |
| 100 to 500 nM | ≤ 10 nM | COc1nc(Nc2ccc(N3CCN(C)CCC3=O)cc2)ncc1C(=O)Nc1c(Cl)cccc1Cl [Compound 185, N-(2,6-dichlorophenyl)-4-methoxy-2-((4-(4-methyl-7-oxo-1,4-diazepan-1-yl)phenyl)amino)pyrimidine-5-carboxamide] |
| 100 to 500 nM | ≤ 10 nM | COc1nc(Nc2cnn([C@H]3CCCN(C)CC3)c2)ncc1C(=O)Nc1c(Cl)cccc1Cl [Compound 189, N-2,6-dichlorophenyl-2-{1-[(S)-1-methyl-4-azepanyl]-4-pyrazolylamino}-4-methoxy-5-pyrimidinecarboxamide] |
| 100 to 500 nM | ≤ 10 nM | COc1nc(Nc2ccc([C@H]3CCN(C)C3)c(C)c2)ncc1C(=O)Nc1c(Cl)cccc1Br [Compound 192] |
| ≤ 100 nM | ≤ 10 nM | COc1nc(Nc2ccc([C@@H]3CCN(C)C3)c(C)c2)ncc1C(=O)Nc1c(Cl)cccc1Br [Compound 193] |
| 100 to 500 nM | ≤ 10 nM | COc1nc(Nc2ccc([C@H]3CCCN(C)C3)c(C)c2)ncc1C(=O)Nc1c(Cl)cccc1Br [Compound 196, (R)—N-(2-bromo-6-chlorophenyl)-4-methoxy-2-((3-methyl-4-(1-methylpiperidin-3-yl)phenyl)amino)pyrimidine-5-carboxamide] |
